Test results as given in ChEMBL document CHEMBL4507273 (2021).

Key:
[1] = target: Serine/threonine-protein kinase RIO2 (Homo sapiens) (UniProt Q9BVS4); settings: Compound concentration 1000.0 nM
[2] = tested on: eIF-2-alpha kinase GCN2 (Homo sapiens), Q9P2K8 [S808G]; settings: Compound concentration 1000.0 nM
[3] = tested on: Tyrosine-protein kinase ABL1 (Homo sapiens), P00519 [F317I]; settings: Compound concentration 1000.0 nM
[4] = target: Guanine nucleotide exchange factor DBS (Homo sapiens, UniProt O15068); assay: CDC42 activation by DBS assay
[5] = target: Platelet-derived growth factor receptor beta (Homo sapiens) (UniProt P09619); settings: Compound concentration 1000.0 nM
[6] = target: Tyrosine-protein kinase Fes/Fps (Homo sapiens) (UniProt P07332); settings: Compound concentration 1000.0 nM
[7] = tested on: Epidermal growth factor receptor (Homo sapiens), P00533 [UNDEFINED MUTATION]; settings: Compound concentration 1000.0 nM
[8] = target: Mitogen-activated protein kinase kinase kinase 11 (Homo sapiens) (UniProt Q16584); settings: Compound concentration 1000.0 nM
[9] = tested on: Tyrosine-protein kinase ABL1 (Homo sapiens), P00519 [M351T]; settings: Compound concentration 1000.0 nM
[10] = target: AP2-associated protein kinase 1 (Homo sapiens) (UniProt Q2M2I8); settings: Compound concentration 1000.0 nM
[11] = target: Serine/threonine-protein kinase TAO2 (Homo sapiens) (UniProt Q9UL54); settings: Compound concentration 1000.0 nM
[12] = target: Dual specificity protein kinase CLK3 (Homo sapiens) (UniProt P49761); settings: Compound concentration 1000.0 nM
Chain of Dual specificity protein kinase CLK3 (Homo sapiens) (P49761 whole entry, looked up): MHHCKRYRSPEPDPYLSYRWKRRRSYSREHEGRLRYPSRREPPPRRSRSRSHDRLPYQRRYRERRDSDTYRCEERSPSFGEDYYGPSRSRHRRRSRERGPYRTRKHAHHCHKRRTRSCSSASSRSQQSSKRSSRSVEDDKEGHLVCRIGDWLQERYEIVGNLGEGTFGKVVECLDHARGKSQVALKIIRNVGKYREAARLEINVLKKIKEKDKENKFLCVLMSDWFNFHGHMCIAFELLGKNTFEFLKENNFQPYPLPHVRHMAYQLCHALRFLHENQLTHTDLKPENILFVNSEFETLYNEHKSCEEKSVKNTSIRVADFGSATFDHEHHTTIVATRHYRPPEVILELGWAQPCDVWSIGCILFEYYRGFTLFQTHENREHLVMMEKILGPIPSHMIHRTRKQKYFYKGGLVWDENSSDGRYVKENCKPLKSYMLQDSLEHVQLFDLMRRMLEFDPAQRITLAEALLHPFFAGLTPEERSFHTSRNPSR

[13] = target: Fibroblast growth factor receptor 2 (Homo sapiens) (UniProt P21802); settings: Compound concentration 1000.0 nM
[14] = target: Serine/threonine-protein kinase pim-2 (Homo sapiens) (UniProt Q9P1W9); settings: Compound concentration 1000.0 nM
Chain of Serine/threonine-protein kinase pim-2 (Homo sapiens) (Q9P1W9 whole entry, looked up): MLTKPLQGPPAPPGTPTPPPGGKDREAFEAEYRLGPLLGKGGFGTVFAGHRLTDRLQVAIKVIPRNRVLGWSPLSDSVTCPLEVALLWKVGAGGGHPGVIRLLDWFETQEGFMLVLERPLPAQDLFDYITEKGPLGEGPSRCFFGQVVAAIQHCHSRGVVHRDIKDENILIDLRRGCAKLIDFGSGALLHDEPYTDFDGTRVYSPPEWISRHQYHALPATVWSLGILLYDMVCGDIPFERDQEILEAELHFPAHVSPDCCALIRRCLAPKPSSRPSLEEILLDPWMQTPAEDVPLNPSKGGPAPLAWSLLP

[15] = target: cAMP-dependent protein kinase catalytic subunit beta (Homo sapiens) (UniProt P22694); settings: Compound concentration 1000.0 nM
[16] = target: Transient receptor potential cation channel subfamily M member 6 (Homo sapiens) (UniProt Q9BX84); settings: Compound concentration 1000.0 nM
[17] = target: Serine/threonine-protein kinase PRP4 homolog (Homo sapiens) (UniProt Q13523); settings: Compound concentration 1000.0 nM
Chain of Serine/threonine-protein kinase PRP4 homolog (Homo sapiens) (Q13523 whole entry): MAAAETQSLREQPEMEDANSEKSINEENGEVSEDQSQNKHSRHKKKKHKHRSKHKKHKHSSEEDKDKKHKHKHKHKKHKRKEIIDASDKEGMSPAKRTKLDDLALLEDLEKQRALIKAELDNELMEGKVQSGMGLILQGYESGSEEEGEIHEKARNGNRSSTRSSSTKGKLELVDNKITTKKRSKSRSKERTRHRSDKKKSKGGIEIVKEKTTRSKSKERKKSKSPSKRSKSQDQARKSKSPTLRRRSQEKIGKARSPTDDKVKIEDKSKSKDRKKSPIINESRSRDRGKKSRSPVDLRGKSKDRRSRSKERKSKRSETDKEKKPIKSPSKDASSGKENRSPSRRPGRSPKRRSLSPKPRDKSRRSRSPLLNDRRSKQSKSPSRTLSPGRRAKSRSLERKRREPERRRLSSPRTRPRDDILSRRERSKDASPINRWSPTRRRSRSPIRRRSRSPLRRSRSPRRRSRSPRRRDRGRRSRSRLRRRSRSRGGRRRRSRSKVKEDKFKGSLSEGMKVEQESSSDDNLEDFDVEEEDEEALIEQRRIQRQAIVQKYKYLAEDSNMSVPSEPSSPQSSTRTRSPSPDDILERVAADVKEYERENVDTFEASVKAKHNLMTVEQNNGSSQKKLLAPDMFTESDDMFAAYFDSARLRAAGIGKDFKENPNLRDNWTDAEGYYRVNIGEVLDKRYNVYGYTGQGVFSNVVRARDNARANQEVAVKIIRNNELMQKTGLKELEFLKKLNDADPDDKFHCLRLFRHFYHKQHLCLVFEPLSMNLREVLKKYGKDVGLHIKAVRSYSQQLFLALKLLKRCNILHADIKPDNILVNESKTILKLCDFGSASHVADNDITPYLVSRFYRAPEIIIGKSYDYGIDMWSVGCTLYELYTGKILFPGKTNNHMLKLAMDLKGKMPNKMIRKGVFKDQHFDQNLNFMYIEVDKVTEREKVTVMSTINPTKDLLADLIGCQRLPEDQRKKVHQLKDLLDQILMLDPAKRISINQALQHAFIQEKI

[18] = target: Fibroblast growth factor receptor 4 (Homo sapiens) (UniProt P22455); settings: Compound concentration 1000.0 nM
Chain of Fibroblast growth factor receptor 4 (Homo sapiens) (P22455 22-802 limits assumed): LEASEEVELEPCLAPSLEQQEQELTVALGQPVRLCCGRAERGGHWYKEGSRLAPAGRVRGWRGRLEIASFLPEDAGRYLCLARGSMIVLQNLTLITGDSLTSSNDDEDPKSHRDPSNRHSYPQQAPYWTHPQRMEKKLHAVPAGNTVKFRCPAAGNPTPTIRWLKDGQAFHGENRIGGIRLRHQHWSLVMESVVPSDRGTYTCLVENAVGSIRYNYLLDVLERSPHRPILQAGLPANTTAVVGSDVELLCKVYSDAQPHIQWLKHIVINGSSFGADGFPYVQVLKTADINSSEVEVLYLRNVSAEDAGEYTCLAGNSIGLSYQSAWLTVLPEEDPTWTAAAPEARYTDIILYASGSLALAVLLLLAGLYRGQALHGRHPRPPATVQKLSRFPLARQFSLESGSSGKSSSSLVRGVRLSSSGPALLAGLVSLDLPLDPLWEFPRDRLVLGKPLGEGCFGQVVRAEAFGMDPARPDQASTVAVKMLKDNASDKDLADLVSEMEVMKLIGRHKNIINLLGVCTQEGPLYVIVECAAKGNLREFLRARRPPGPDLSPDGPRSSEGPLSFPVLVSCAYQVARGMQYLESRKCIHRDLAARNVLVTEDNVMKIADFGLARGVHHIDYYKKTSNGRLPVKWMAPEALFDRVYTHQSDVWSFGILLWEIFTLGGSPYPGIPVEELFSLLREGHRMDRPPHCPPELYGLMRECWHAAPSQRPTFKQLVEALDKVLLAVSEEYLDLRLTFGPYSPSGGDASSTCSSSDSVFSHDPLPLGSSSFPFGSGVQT

[19] = target: 5-hydroxytryptamine receptor 5A (Homo sapiens, UniProt P47898); settings: Compound concentration 10.0 uM
[20] = target: Calcium/calmodulin-dependent protein kinase type II subunit delta (Homo sapiens) (UniProt Q13557); settings: Compound concentration 1000.0 nM
[21] = tested on: Mast/stem cell growth factor receptor Kit (Homo sapiens), P10721 [D816V]; settings: Compound concentration 1000.0 nM
[22] = target: Serine/threonine-protein kinase RIO1 (Homo sapiens) (UniProt Q9BRS2); settings: Compound concentration 1000.0 nM
[23] = target: Serine/threonine-protein kinase BRSK1 (Homo sapiens) (UniProt Q8TDC3); settings: Compound concentration 1000.0 nM
[24] = target: Cyclin-dependent kinase 16 (Homo sapiens) (UniProt Q00536); settings: Compound concentration 1000.0 nM
[25] = target: Serine/threonine-protein kinase Chk1 (Homo sapiens) (UniProt O14757); settings: Compound concentration 1000.0 nM
Chain of Serine/threonine-protein kinase Chk1 (Homo sapiens) (O14757 whole entry): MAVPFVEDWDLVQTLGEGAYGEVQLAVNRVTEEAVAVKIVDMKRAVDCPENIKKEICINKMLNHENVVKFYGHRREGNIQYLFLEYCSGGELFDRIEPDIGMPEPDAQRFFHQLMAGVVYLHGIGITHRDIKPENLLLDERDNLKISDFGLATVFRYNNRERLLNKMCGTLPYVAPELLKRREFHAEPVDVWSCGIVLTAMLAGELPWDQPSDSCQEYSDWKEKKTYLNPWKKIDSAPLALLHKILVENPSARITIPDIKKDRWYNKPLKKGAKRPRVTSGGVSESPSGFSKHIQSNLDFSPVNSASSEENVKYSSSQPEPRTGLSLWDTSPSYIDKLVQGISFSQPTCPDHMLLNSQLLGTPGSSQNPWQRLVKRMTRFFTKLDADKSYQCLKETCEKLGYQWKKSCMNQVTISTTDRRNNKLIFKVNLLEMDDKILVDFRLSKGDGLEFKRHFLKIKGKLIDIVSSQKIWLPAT

[26] = target: Serine/threonine-protein kinase/endoribonuclease IRE1 (Homo sapiens) (UniProt O75460); settings: Compound concentration 1000.0 nM
[27] = tested on: Phosphatidylinositol 4,5-bisphosphate 3-kinase catalytic subunit alpha isoform (Homo sapiens), P42336 [Q546K]; settings: Compound concentration 1000.0 nM
[28] = target: T1, Muscarinic acetylcholine receptor M5 (Homo sapiens, UniProt P08912); assay: GPCRScan assay: inhibition of M5; parameters: radioligand conc. used [nm] 0.2 – 1.0, parental cells stable CHO
T1 sequence (P08912 whole entry): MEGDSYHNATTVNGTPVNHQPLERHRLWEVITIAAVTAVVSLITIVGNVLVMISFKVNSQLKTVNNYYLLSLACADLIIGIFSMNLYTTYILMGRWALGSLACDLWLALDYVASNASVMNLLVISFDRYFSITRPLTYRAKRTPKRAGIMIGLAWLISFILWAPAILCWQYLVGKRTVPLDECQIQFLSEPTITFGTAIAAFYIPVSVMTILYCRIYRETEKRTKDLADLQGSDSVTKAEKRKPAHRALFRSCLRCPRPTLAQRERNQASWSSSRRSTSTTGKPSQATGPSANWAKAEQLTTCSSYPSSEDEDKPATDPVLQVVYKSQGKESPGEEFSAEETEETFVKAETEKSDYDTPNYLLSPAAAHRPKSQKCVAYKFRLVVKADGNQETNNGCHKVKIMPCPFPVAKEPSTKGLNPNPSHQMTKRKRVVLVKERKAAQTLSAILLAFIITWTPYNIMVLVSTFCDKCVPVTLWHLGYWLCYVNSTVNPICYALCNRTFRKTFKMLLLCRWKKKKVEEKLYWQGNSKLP

[29] = target: Rho-associated protein kinase 2 (Homo sapiens) (UniProt O75116); settings: Compound concentration 1000.0 nM
[30] = target: Receptor tyrosine-protein kinase erbB-4 (Homo sapiens) (UniProt Q15303); settings: Compound concentration 1000.0 nM
[31] = target: Beta-adrenergic receptor kinase 1 (Homo sapiens) (UniProt P25098); settings: Compound concentration 1000.0 nM
[32] = tested on: Tyrosine-protein kinase ABL1 (Homo sapiens), P00519 [H396P]; settings: Compound concentration 1000.0 nM
[33] = target: cAMP-dependent protein kinase catalytic subunit PRKX (Homo sapiens) (UniProt P51817); settings: Compound concentration 1000.0 nM
Chain of cAMP-dependent protein kinase catalytic subunit PRKX (Homo sapiens) (P51817 whole entry): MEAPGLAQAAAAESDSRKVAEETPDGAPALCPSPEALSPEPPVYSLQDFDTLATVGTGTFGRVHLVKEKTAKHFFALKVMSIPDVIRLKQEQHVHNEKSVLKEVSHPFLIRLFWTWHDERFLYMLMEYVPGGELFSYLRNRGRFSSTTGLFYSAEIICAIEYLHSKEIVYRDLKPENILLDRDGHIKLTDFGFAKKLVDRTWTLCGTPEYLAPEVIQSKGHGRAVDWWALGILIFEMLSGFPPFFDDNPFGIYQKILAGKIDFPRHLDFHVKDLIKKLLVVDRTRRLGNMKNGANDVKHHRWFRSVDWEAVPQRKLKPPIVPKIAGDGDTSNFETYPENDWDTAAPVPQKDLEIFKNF

D(2) dopamine receptor = D(2) dopamine receptor (Homo sapiens, UniProt P14416); settings: Compound concentration 10.0 uM
[34] = target: Serine/threonine-protein kinase PLK3 (Homo sapiens) (UniProt Q9H4B4); settings: Compound concentration 1000.0 nM
[35] = target: Serine/threonine-protein kinase 25 (Homo sapiens) (UniProt O00506); settings: Compound concentration 1000.0 nM
[36] = tested on: Epidermal growth factor receptor (Homo sapiens), P00533 [L858R]; settings: Compound concentration 1000.0 nM

Chain of eIF-2-alpha kinase GCN2 (Homo sapiens), Q9P2K8 [S808G] (Q9P2K8 whole entry S808G): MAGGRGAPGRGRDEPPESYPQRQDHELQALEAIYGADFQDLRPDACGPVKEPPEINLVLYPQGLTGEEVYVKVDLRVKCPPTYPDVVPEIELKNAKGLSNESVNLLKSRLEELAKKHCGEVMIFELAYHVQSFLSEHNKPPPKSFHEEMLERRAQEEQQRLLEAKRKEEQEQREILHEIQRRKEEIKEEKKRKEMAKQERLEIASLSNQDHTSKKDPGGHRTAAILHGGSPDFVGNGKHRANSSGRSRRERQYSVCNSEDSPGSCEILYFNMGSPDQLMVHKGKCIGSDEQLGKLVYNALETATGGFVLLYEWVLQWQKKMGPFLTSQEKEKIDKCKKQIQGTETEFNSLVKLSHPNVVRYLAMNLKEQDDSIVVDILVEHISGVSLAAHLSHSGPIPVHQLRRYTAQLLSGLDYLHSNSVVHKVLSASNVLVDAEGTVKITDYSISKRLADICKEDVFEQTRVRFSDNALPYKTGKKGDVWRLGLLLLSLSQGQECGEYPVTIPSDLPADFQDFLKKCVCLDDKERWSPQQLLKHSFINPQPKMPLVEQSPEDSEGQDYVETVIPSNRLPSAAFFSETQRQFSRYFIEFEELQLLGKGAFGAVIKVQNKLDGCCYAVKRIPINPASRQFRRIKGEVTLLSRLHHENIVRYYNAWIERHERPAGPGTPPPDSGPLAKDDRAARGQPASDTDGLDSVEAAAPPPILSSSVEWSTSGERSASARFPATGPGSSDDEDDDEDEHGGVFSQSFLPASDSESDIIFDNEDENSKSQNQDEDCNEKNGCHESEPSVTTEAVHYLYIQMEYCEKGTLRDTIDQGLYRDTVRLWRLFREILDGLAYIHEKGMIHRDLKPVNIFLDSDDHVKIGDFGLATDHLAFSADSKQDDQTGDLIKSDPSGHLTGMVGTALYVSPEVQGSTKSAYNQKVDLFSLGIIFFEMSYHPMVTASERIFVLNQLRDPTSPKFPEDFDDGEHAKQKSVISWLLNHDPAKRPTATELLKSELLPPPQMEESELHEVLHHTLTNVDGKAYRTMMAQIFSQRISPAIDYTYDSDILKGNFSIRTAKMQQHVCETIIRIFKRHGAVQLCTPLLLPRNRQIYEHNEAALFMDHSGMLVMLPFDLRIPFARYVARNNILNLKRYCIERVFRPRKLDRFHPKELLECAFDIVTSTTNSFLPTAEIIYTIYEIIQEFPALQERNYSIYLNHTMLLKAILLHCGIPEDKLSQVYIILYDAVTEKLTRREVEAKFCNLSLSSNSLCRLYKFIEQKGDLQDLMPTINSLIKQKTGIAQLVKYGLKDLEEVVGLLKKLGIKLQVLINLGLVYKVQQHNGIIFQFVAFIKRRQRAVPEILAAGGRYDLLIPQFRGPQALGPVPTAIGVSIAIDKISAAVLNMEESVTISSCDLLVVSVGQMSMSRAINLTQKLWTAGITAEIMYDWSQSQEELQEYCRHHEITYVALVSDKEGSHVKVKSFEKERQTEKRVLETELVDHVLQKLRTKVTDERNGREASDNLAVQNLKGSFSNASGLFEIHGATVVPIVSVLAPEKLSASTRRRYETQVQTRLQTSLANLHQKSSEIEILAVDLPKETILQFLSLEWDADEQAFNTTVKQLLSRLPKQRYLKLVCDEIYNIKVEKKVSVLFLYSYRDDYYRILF

| SMILES | residual activity [1] [%] | residual activity [2] [%] | residual activity [3] [%] | IC50 [4] | residual activity [5] [%] | residual activity [6] [%] | residual activity [7] [%] | residual activity [8] [%] | residual activity [9] [%] | residual activity [10] [%] | residual activity [11] [%] | residual activity [12] [%] | residual activity [13] [%] | residual activity [14] [%] | residual activity [15] [%] | residual activity [16] [%] | residual activity [17] [%] | residual activity [18] [%] | inhibition [19] [%] | residual activity [20] [%] | also measured |
| --- | --- | --- | --- | --- | --- | --- | --- | --- | --- | --- | --- | --- | --- | --- | --- | --- | --- | --- | --- | --- | --- |
| CNCc1ccccc1-c1csc([C@H](C)Nc2nc(C)nc3cc(OC)c(OC)cc23)c1 [BAY-294] | 100 | 100 | 100 | > 20000 nM (not active) | 99 | 100 | 98 | 100 | 85 | 94 | 90 | 100 | 94 | 100 | 100 | 100 | 100 | 100 | 78.1 | 97 | residual activity [21]: 100%; residual activity [22]: 96%; residual activity [23]: 89%; residual activity [24]: 83%; residual activity [25]: 100%; residual activity [26]: 100%; residual activity [27]: 84%; Ki ([28]; read-out: Ki): 524 nM; residual activity [29]: 100%; residual activity [30]: 100%; residual activity [31]: 100%; residual activity [32]: 95%; residual activity [33]: 76%; inhibition (D(2) dopamine receptor): 50.6%; residual activity [34]: 87%; residual activity [35]: 100%; residual activity [36]: 100% |
| CNCc1ccccc1-c1csc([C@@H](C)Nc2nc(C)nc3cc(OC)c(OC)cc23)c1 [BAY-293] | 100 | 99 | 100 | > 20000 nM (not active) | 91 | 100 | 82 | 99 | 74 | 95 | 86 | 100 | 85 | 100 | 100 | 91 | 96 | 100 | 68.5 | 99 | residual activity [21]: 81%; residual activity [22]: 100%; residual activity [23]: 87%; residual activity [24]: 87%; residual activity [25]: 92%; residual activity [26]: 100%; residual activity [27]: 89%; Ki ([28]; read-out: Ki): 956 nM; Ki ([28]; read-out: pKi (converted)): 944 nM; residual activity [29]: 93%; residual activity [30]: 97%; residual activity [31]: 86%; residual activity [32]: 93%; residual activity [33]: 67%; inhibition (D(2) dopamine receptor): 32.3%; residual activity [34]: 91%; residual activity [35]: 89%; residual activity [36]: 82% |
